Type: physicochemical
Procedure: In order to assess the API release profile from the prototypes in Example 4 to identify a lead formulation, a robust dissolution method was developed. Solubility studies were performed on the API for the selection of dissolution media. For these studies, the active concentration of the dissolution media was 0.1 milligrams per milliliter (mg/mL).
According to USP guidelines (on sink conditions) the solubility needs to be at least 3 times the proposed active concentration. […] The studies next turned to the use of higher hydrocortisone acetate concentrations (0.3 mg/mL).
In order to avoid ionization of the hydrocortisone acetate in the dissolution media, a buffer of pH 5.0 was used in combination with 5% w/v SLS. The final composition of the dissolution media was 5% w/v SLS:acetate buffer (pH 5.0) in 70:30 combination with the pH of the final combination adjusted to 6.8-7.0.

CC(=O)OCC(=O)[C@@]1(O)CC[C@H]2[C@@H]3CCC4=CC(=O)CC[C@]4(C)[C@H]3[C@@H](O)C[C@@]21C [hydrocortisone acetate]
average recovered solubility: 98.4%
% Solubility API (pH 7.2): 4.1%
